Several values for one entry are separate records, joined by “and”; a condition that tells them apart may be missing. Identical values can stand only once. Activity calls are given as the source filed them.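 Rule for the calls: active = compounds giving half or more protection of infected cells from virus-caused growth loss, again on retest; inactive = the rest.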 Where a SMILES comes first, the peptide text is derived from it.

This assay relates to CEM cells HIV-1 protection, formazan growth assay. The assay can be described thus: NCI AIDS Antiviral Assay. Conditions: for IC50: measured here: growth of uninfected CEM cells. The essentials: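 Human CEM cells, uninfected and HIV-1-infected, exposed to five drug concentrations; growth measured by soluble formazan assay and scored as percent protection from infection, with protecting compounds retested.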

As usually defined, the EC50 is the midpoint of the concentration-response curve. A word on the IC50: it is the midpoint of a concentration-inhibition curve. In the case of `O=C1c2ccccc2CC1(Br)C(Br)c1ccccc1` (stereo not given), the EC50 is above 200 µM; the concentration for half-maximal inhibition (IC50) is 10.7 µM and 10 µM.
As to `CC#N.CC#N.COC(=O)[C@H]1CCC(=O)[N-]1.COC(=O)[C@H]1CCC(=O)[N-]1.COC(=O)[C@H]1CCC(=O)[N-]1.COC(=O)[C@H]1CCC(=O)[N-]1.[Rh+2].[Rh+2]`, the EC50 is above 200 µM and the IC50 was above 200 µM.
As for `CN(C)c1ccc(/C=C(\C#N)C(N)=C(C#N)C#N)cc1`, the EC50 was 132 µM and the IC50 is above 200 µM.
Taken in the same sequence, the figures for `CC(=O)NC1C(OCc2ccccc2)OC(COC(=O)CCCCCCCCCCNC(=O)CCNc2ccc([N+](=O)[O-])c3[nH]c4ccc(O)cc4c(=O)c23)C(O)C1OC(C)C(=O)N[C@H](C(=O)N[C@H](CCC(=O)O)C(N)=O)C(C)C` (stereo not given in full) were above 224 µM and 87.1 µM.
As for `NCCCCC(NC(=O)C(CS)NC(=O)C(N)Cc1cnc[nH]1)C(=O)NC(Cc1ccccc1)C(=O)NC(Cc1c[nH]c2ccccc12)C(=O)NC(Cc1c[nH]c2ccccc12)C(N)=O` (stereo not given), the EC50 is above 50.1 µM and the half-inhibitory concentration (IC50) is above 50.1 µM.
For the compound `COc1cc(OC)c(OC)cc1/C=N/NC(=O)N/N=C/c1cc(OC)c(OC)cc1OC`, the outcome was inactive.
Turning to `COc1cc(-c2cc(=O)c3c(O)c(OC)c(OC)cc3o2)ccc1O`, the EC50 is above 11 µM and the 50% inhibitory concentration (IC50) is above 11 µM.
Turning to `CCOC(=O)C(NC(=O)c1ccccc1)(Nc1cc(C)on1)C(F)(F)F` (stereo not given), the EC50 was above 200 µM and the IC50 was above 200 µM.
With `O=C1c2cc3c(cc2CC12Cc1cc4c(cc1C2=O)CCC4)CCC3`, the EC50 was 158 µM and the IC50 is above 200 µM.
On the same counts, the results for `CCCCCCCCCCO/N=C\c1c2c(O)c3c(O)c(C)c4c(c3c1O)C(=O)C(C)(O/C=C\C(OC)C(C)C(OC(C)=O)C(C)C(O)C(C)C(O)C(C)/C=C\C=C(\C)C(=O)N2)O4` (stereo not given) are above 200 µM and 3.02 µM.
As for `CN(C)C(=S)/N=c1\ssc(=S)n1Cc1ccco1`, the result was inactive.
`O=C(c1ccc(Cl)cc1)c1ccc(OCCSCCCCCCCCCCSCCOc2ccc(C(=O)c3ccc(Cl)cc3)cc2)cc1`: the EC50 is above 13.8 µM and the IC50 was above 13.8 µM.
For `O=c1[nH]c2ccc(Cl)cc2o1`, the EC50 was 182 µM and the IC50 was above 200 µM.
On the same counts, the results for `CC(C)CC(N)C(=O)NC(Cc1cnc[nH]1)C(=O)NC(CC(N)=O)C(=O)NC(C(=O)NC(CO)C(=O)NC(Cc1ccc(O)cc1)C(=O)NC(CO)C(=O)NC(C)C(=O)NC(CCCCN)C(=O)NC(CC(=O)O)C(=O)NC(CC(C)C)C(=O)O)C(C)O` (stereo not given) (H-LHNTSYSAKDL-OH; configuration not given here) are above 50.1 µM and above 50.1 µM.
On to `Cc1ccc(Oc2ccc(C)cc2[N+](=O)[O-])cc1`, for which the outcome was inactive.
The same measure, in the same setting: to `C=C[C@]1(O)CCC[C@]2(C)C(=O)CCC12C` (stereo not given in full) belongs “inactive”; to `CN1C(=O)C(O)CC1c1cccc(C(F)(F)F)c1` (stereo not given), “inactive”.
Regarding `COc1ccc(NC(=O)C2C(=O)N(c3ccc(OC)cc3)C(=O)/C2=N\N)cc1` (stereo not given), the EC50 is above 1.45 µM and the concentration for half-maximal inhibition (IC50) is above 1.45 µM.
On to `Cn1cc(NC(=O)c2cc(NC(=O)c3cc(NC(=O)/C=C/C(=O)Nc4cn(C)c(C(=O)Nc5cn(C)c(C(=O)Nc6cn(C)c(C(=O)NCCC(=N)N)n6)n5)n4)cn3C)cn2C)cc1C(=O)NCCC(=N)N`, for which the EC50 was above 7.76 µM and the IC50 stood at 1.45 µM.
On the same counts, the results for `O=C1/C(=C\Oc2ccc(F)cc2)N2CCC1CC2` are above 200 µM and 102 µM.
Taken in the same sequence, the figures for `Cc1cc2c(cc1Cl)SC(NNC(=O)c1ccco1)=NS2(=O)=O` were above 200 µM and above 200 µM.
On to `CC1(C)SCC(COC(=O)c2ccccc2)S1` (stereo not given), for which the EC50 was above 200 µM and the half-inhibitory concentration (IC50) was above 200 µM.
In the case of `CC(C)(C)c1cc(C(P(=O)(O)O)P(=O)(O)O)cc(C(C)(C)C)c1O`, the EC50 was above 525 µM and the IC50 was determined as 331 µM.
On the same counts, the results for `C=C=C(CC(CC=C(C)C)(C(C)=O)C(=O)OC(C)(C)C)S(=O)(=O)c1ccccc1` (stereo not given) are above 32.4 µM and 6.17 µM.
Taken in the same sequence, the figures for `C/C=C/C=Nc1c(C#N)c2n(c1C(=O)Nc1ccc(C)cc1)CCC2` were above 50.1 µM and above 50.1 µM.
Taken in the same sequence, the figures for `CCCN(CCCc1ccccc1)CCc1ccc2[nH]c(=S)[nH]c2c1` were above 200 µM and 35.5 µM.
Regarding `CCC(=O)NC(C(=O)NC(C(=O)NC(CC(C)C)C(O)CC(=O)NC(C)C(=O)NC(CC(C)C)C(O)CC(=O)O)C(C)C)C(C)C` (stereo not given), the EC50 was above 7.59 µM and the IC50 was above 7.59 µM.
As for `N#CCN(Cc1ccccc1)[C@H]1CCC[C@]1(O)/C=C/c1ccc2c(c1)OCO2`, the EC50 was above 200 µM and the concentration for half-maximal inhibition (IC50) stood at 32.4 µM.
On the same counts, the results for `C=C=C(C)C(c1ccccc1)N(C)C` (stereo not given) are above 1050 µM and above 1050 µM.
Taken in the same sequence, the figures for `NNc1nnc(CCCCCCCCc2nnc(NN)n2N)n1N` were above 200 µM and 37.2 µM.
On the same counts, the results for `O=C(O)C1CCC(c2ccc(Cl)cc2)N1` (stereo not given) are above 200 µM and above 200 µM.
Regarding `CCc1cc(Cc2cc(CC)c(NC(=O)C(=O)CC(=O)c3sc(-c4cccnc4)nc3C)c(CC)c2)cc(CC)c1NC(=O)C(=O)CC(=O)c1sc(-c2cccnc2)nc1C`, the EC50 is above 105 µM and the IC50 was above 105 µM.
Regarding `CCOP(=O)(OCC)C(C(=O)OC)C(=O)C(=O)Nc1ccc(Cl)cc1Cl` (stereo not given), the EC50 is above 61.7 µM and the concentration for half-maximal inhibition (IC50) is above 61.7 µM.
Regarding `CCOC(=O)NC(N(C)C(C(C)C)P(=O)(OCC)OCC)(C(F)(F)F)C(F)(F)F` (stereo not given), the EC50 was above 200 µM and the concentration for half-maximal inhibition (IC50) is above 200 µM.
On to `CCOC(=O)C(C(O)c1ccc([N+](=O)[O-])cc1)P(=O)(OCC)OCC` (stereo not given), for which the EC50 was above 661 µM and the concentration for half-maximal inhibition (IC50) worked out at 93.3 µM.
As for `N/N=C(/CS(=O)(=O)c1ccc(Cl)cc1)c1ccccc1`, the EC50 was above 100 µM and the half-inhibitory concentration (IC50) was above 100 µM.
As to `Nc1ncnc2c1ncn2[C@H]1CC[C@]2(CO)C[C@H]12`, the EC50 is above 25.1 µM and the IC50 was above 25.1 µM.
Turning to `CCOC(=O)/C(=C\n1c(=S)[nH]c2ccccc21)C(=O)c1ccccc1`, the EC50 was above 200 µM and the IC50 was above 200 µM.
Consider `Fc1ccc2nncc(SCc3ccc(Cl)cc3)c2c1`, for which the EC50 is above 87.1 µM and the IC50 was above 87.1 µM.
With `Cc1ccc(S(=O)(=O)c2ccc([N+](=O)[O-])cc2)cc1`, the result was inactive.
Regarding `COc1ccc2c(c1)c1c(n2CCN(C)C)-c2cccc(OC)c2CC1`, the EC50 was above 200 µM and the concentration for half-maximal inhibition (IC50) was determined as 11 µM.
On the same counts, the results for `O=C1c2c(ccc3c2CCC3)CC12Cc1cc3c(cc1C2)CCC3` are above 200 µM and above 200 µM.
Take `O=C(O)C1Cc2nc[nH]c2CN1` (stereo not given): the outcome was inactive.
On to `Cc1c(CCO)c(=O)n2n1CCCC2`, for which the EC50 is above 200 µM and the half-inhibitory concentration (IC50) is above 200 µM.
On to `CC[n+]1cnc(N)c2c(-c3ccc(Cl)cc3)cn(-c3ccc(C)cc3)c21`, for which the EC50 was above 200 µM and the 50% inhibitory concentration (IC50) stood at 12.3 µM.
Taken in the same sequence, the figures for `CN(C)c1ccc(C=Nc2ccc(Oc3ccc(Cl)cc3)c(Cl)c2)cc1` were above 200 µM and 28.2 µM.

These data come from PubChem BioAssay AID179 (DTP/NCI, 2004).
